Experimental findings from ChEMBL document CHEMBL6109144, “Discovery of New Difluorocyclobutyl Derivatives as Effective Glucagon-Like Peptide-1 Receptor Agonists with Reduced hERG Inhibitory Activities” (J Med Chem, 2025) are described below.

SMILES strings stand for the structures. Calls of active or inactive are those of the source.

Data set [1] concerns the target T1, Glucagon-like peptide 1 receptor (Homo sapiens, UniProt P43220). Description: Agonist activity at N-terminal hemagglutinin-tagged human GLP-1R expressed in CHO cells co-transfected with pcDNA3.0 assessed as increase in intracellular cAMP accumulation incubated for 30 mins by microplate reader analysis. It counts as functional, cell-based. (cAMP levels reflect the balance of adenylyl cyclase and phosphodiesterase activity.)

Data set [2] concerns the target T1, Glucagon-like peptide 1 receptor. As to the kind of experiment: Binding affinity to GLP-1R (unknown origin) at 500 nM measured at 30 to 120 mins by HTRF analysis relative to control. The settings on record: time 30-120 min. (In TR-FRET formats the signal depends on donor and acceptor labels being close together.)
Data set [3] has the same target. Description: Binding affinity to GLP-1R (unknown origin) at 5000 nM measured at 30 to 120 mins by HTRF analysis relative to control. The settings on record: filed as agonist, time 30-120 min.
Data set [4] concerns the target T2, hERG (KCNH2) (Homo sapiens, UniProt Q12809). Description: Inhibition of hERG at 1 uM at -80 mV holding potential by whole-cell patch clamp analysis relative to control. The format is toxicity. (The hERG channel carries a current that helps repolarise heart muscle cells.)
Data set [5] has as its target T2, hERG (KCNH2). Description: Inhibition of hERG at 10 uM at -80 mV holding potential by whole-cell patch clamp analysis relative to control. The format is toxicity.
A short description of data set [6]: Half life in Sprague-Dawley rat at 5 mg/kg, po measured up to 24 hrs by LC-MS/MS analysis. It counts as ADME, organism-based. The settings on record: in vivo.
Data set [7] in a line: Cmax in Sprague-Dawley rat at 5 mg/kg, po measured up to 24 hrs by LC-MS/MS analysis. It counts as ADME, organism-based. The settings on record: in vivo.
Data set [8] in a line: AUC (0 to infinity) in Sprague-Dawley rat at 5 mg/kg, po measured up to 24 hrs by LC-MS/MS analysis. The format is ADME, organism-based. The conditions noted are these: in vivo.
Data set [9] in a line: Observed apparent oral clearance in Sprague-Dawley rat at 5 mg/kg, po measured up to 24 hrs by LC-MS/MS analysis. The format is ADME, organism-based. The conditions noted are these: in vivo.
The nature of data set [10]: Fraction of the dose absorbed in Sprague-Dawley rat at 5 mg/kg, po measured up to 24 hrs by LC-MS/MS analysis. It counts as ADME, organism-based. The settings on record: in vivo, read-out: Fabs.
Data set [11] can be described thus: in vivo. The settings on record: Sprague-Dawley, rat, po, 5 mg/kg.
The subject of data set [12] is Rattus norvegicus. As to the kind of experiment: Antidiabetic activity in human GLP-1R knockin Sprague-Dawley rat model assessed as increase in rate of glucose disappearance at 10 mg/kg, po pretreated with compound for 15 mins by IPGTT analysis. The format is functional, organism-based.
For data set [13], the system named is Rattus norvegicus. Description: Antidiabetic activity in human GLP-1R knockin Sprague-Dawley rat model assessed as increase in rate of insulin secretion at 10 mg/kg, po pretreated with compound for 15 mins by IPGTT analysis. It counts as functional, organism-based.

T1 sequence (P43220 whole entry): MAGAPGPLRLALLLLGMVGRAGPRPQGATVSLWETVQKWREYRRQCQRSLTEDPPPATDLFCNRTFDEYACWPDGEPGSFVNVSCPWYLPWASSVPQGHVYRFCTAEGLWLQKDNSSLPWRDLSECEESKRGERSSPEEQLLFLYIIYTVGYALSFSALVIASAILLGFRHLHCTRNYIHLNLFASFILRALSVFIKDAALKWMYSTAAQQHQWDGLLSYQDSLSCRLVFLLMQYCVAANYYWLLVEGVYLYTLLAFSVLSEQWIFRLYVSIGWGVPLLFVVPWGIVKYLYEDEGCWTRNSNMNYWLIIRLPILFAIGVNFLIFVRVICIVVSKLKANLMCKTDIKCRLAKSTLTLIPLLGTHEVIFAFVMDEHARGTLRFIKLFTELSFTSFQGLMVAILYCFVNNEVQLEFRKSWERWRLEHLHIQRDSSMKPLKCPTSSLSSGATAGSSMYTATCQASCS
T2 sequence (Q12809 whole entry): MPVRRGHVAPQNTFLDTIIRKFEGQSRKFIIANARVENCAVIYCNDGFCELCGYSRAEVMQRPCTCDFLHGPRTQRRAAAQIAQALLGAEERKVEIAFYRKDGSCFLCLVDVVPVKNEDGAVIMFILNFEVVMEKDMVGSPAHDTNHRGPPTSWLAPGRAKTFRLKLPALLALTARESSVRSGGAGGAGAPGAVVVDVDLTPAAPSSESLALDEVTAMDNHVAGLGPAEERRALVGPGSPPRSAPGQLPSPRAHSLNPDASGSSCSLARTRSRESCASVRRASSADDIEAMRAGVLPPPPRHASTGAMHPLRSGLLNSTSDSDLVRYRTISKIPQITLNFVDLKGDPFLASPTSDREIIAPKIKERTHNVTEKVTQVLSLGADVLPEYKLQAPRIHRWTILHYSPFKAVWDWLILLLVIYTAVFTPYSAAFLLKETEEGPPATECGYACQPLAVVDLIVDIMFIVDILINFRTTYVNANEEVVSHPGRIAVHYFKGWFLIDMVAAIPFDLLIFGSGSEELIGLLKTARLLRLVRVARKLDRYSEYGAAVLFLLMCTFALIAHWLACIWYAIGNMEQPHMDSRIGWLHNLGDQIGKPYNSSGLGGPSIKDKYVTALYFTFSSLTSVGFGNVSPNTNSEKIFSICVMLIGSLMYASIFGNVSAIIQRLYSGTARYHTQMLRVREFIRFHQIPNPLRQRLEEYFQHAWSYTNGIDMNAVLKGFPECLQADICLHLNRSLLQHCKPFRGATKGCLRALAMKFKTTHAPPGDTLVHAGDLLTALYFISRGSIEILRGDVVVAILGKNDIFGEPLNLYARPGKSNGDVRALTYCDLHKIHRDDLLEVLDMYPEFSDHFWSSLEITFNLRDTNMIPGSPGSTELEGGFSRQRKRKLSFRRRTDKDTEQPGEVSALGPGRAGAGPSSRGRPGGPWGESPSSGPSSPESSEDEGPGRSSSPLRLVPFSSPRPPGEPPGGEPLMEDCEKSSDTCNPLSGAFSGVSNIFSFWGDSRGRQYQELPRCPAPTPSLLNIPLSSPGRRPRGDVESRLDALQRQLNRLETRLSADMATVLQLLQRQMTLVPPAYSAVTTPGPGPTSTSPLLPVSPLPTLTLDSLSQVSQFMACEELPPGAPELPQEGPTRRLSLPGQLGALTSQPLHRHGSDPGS

As to `O=C(O)c1ccc2nc(CN3CCN(c4cccc(OCc5ccc(C6CC(F)(F)C6)cc5F)n4)CC3)n(C[C@@H]3CCO3)c2c1`, the EC50 (as a rule, the concentration at which the effect is half-maximal) in data set [1] was 0.081 nM. Moreover, the results for the Activity in data set [2] and in [3] were 19.9% and 66.6%, respectively.
`O=C(O)c1ccc2nc(CN3CC=C(c4cccc(OCc5ccc(C6CC(F)(F)C6)cc5F)n4)CC3)n(C[C@@H]3CCO3)c2c1`: the EC50 in data set [1] turned out to be 0.059 nM. In data set [4], the inhibition (commonly the drop in the measured response relative to a control, in per cent) at 1 µM came out at 4.53%. Also, the inhibition at 10 µM in data set [5] is 74%. For the same compound, the half-life (as a rule, the time needed for the level to fall by half in the phase considered) in data set [6] is 6.68 h. Also, in [7], the peak level (Cmax) was 22 ng/mL. Besides, the AUC(0-inf) (as a rule, the area under the concentration-time curve extrapolated to infinity) in data set [8] is 67 ng·h/mL. In addition, in data set [9], the CL/F – broadly, the apparent clearance, not corrected for the fraction that reaches the circulation – was 1230 mL/min/kg. In addition, the Fa at 24 h in data set [10] came out at 3.63%. Besides, the values for the Activity in data set [2] (filed as agonist) and in [3] were 57.9% and 88.9%, respectively. For the same compound, the Tmax – broadly, the time at which the peak concentration occurs – at 24 h in data set [11] was 0.42 h.
On to `COc1cc(C(=O)O)cc2c1nc(CN1CC=C(c3cccc(OCc4ccc(C5CC(F)(F)C5)cc4F)n3)CC1)n2C[C@@H]1CCO1`, for which the EC50 in [1] worked out at 0.012 nM. Moreover, in data set [5], the inhibition at 10 µM came out at 68.3%. For the same compound, in data set [6], the half-life was 2.41 h. For the same compound, in data set [7], the highest level (Cmax) was 31.5 ng/mL. Besides, the total exposure AUC(0-inf) in data set [8] was 84 ng·h/mL. Moreover, in data set [9], the CL/F was 1040 mL/min/kg. The Fa at 24 h in data set [10] was determined as 2.43%. Also, the Activity in [2] (filed as agonist) is 69.4%; in data set [3], 92.3%. Moreover, in data set [11], the time to peak (Tmax) at 24 h came to 0.92 h.
In the case of `O=C(O)c1ccc2nc(Cc3ccc(-c4cccc(OCc5ccc(C6CC(F)(F)C6)cc5F)n4)cc3F)n(C[C@@H]3CCO3)c2c1`, the EC50 in data set [1] turned out to be 0.031 nM. Further, the inhibition at 1 µM in data set [4] amounted to 0.58%. For the same compound, in data set [5], the inhibition at 10 µM came out at 4.76%. Besides, the half-life in [6] was 2.19 h. In addition, the highest concentration (Cmax) (as a rule, the peak of the concentration-time curve) in data set [7] is 33.6 ng/mL. Further, in data set [8], the AUC(0-inf) came out at 91 ng·h/mL. For the same compound, the apparent clearance (CL/F) in [9] came to 963 mL/min/kg. For the same compound, the Fa at 24 h in data set [10] is 2.86%. Further, the Tmax at 24 h in [11] was 1.33 h.
As for `O=C(O)c1ccc2nc(CN3CCC(Oc4cccc(COc5ccc6cnn(CC(F)F)c6c5F)n4)CC3)n(C[C@@H]3CCO3)c2n1`, the concentration for a half-maximal effect (EC50) in data set [1] was 0.085 nM. Further, the inhibition at 1 µM in data set [4] worked out at 5.1%. The inhibition at 10 µM in data set [5] stood at 14.2%. Besides, in [6], the half-life is 2.95 h. In data set [7], the Cmax worked out at 38.3 ng/mL. In [8], this compound registered an AUC(0-inf) of 31.4 ng·h/mL. Besides, the apparent clearance (CL/F) in data set [9] is 2210 mL/min/kg. For the same compound, the Fa at 24 h in data set [10] was 2.2%. Moreover, the time of peak concentration (Tmax) at 24 h in data set [11] turned out to be 0.19 h.
`O=C(O)c1ccc2nc(CN3CCC(Oc4cccc(COc5ccc6cnn(CC(F)F)c6c5)n4)CC3)n(C[C@@H]3CCO3)c2n1`: the concentration for a half-maximal effect (EC50) in data set [1] was 0.085 nM. The inhibition at 1 µM in data set [4] is -0.55%. The inhibition at 10 µM in data set [5] was determined as 2.69%. For the same compound, in [6], the half-life is 4.27 h. In addition, in [7], the Cmax is 133 ng/mL. Also, the AUC(0-inf) in data set [8] is 149 ng·h/mL. For the same compound, in [9], the CL/F was 601 mL/min/kg. Also, in [10], the Fa at 24 h turned out to be 10.8%. For the same compound, the Tmax at 24 h in [11] was found to be 0.36 h.
In the case of `O=C(O)c1cc(F)c2nc(CN3CC=C(c4cccc(OCc5ccc(C6CC(F)(F)C6)cc5F)n4)CC3)n(C[C@@H]3CCO3)c2c1`, the concentration giving a half-maximal response (EC50) in [1] turned out to be 0.016 nM. For the same compound, the inhibition at 10 µM in data set [5] was 58.7%. In addition, the Activity in data set [2] (filed as agonist) is 45.4%; in data set [3], 82.2%.
On to `O=C(O)c1ccc2nc(CN3CCC(Oc4cccc(Cc5ccc(Cl)c6c5OCC6)n4)CC3)n(C[C@@H]3CCO3)c2n1`, for which, in [1], the EC50 was 0.047 nM. The inhibition at 1 µM in data set [4] was 0.7%. In addition, the inhibition at 10 µM in data set [5] worked out at 5.1%. Further, the half-life in data set [6] was 10.5 h. This compound registered a Cmax in data set [7] of 24.1 ng/mL. The compound further gave a total exposure AUC(0-inf) in [8] of 182 ng·h/mL. In data set [9], the CL/F is 458 mL/min/kg. The Fa at 24 h in data set [10] was determined as 28.5%. The Tmax at 24 h in data set [11] stood at 0.67 h.
Take `O=C(O)c1cc(F)c2nc(CN3CCC(c4cccc(OCc5ccc(C6CC(F)(F)C6)cc5F)n4)CC3)n(C[C@@H]3CCO3)c2c1`: in data set [1], the 50% effective concentration (EC50) is 0.026 nM. The inhibition at 10 µM in [5] was determined as 101%. In data set [6], this compound had a half-life of 2.3 h. The compound further had a peak concentration (Cmax) in data set [7] of 65.6 ng/mL. This compound registered an area under the curve AUC(0-inf) in data set [8] of 229 ng·h/mL. Moreover, the CL/F in data set [9] was found to be 375 mL/min/kg. Besides, the Fa at 24 h in data set [10] came to 6.7%. The time of peak concentration (Tmax) at 24 h in data set [11] amounted to 2 h.
For the compound `N#Cc1ccc(COc2cccc(C3CCN(Cc4nc5ccc(C(=O)O)cc5n4C[C@@H]4CCO4)CC3)n2)c(F)c1` [DANUGLIPRON], the inhibition at 1 µM in [4] amounted to 8.4%. Also, the inhibition at 10 µM in data set [5] was determined as 69.7%. The compound also had a half-life in data set [6] of 3.61 h. Moreover, the Cmax in data set [7] stood at 130 ng/mL. This compound returned an AUC(0-inf) in data set [8] of 655 ng·h/mL. In data set [9], the apparent clearance CL/F was determined as 135 mL/min/kg. Besides, the Fa at 24 h in data set [10] amounted to 35.1%. The Activity in data set [2] (filed as agonist) was determined as 44.9%; in [3] it was 81.9%. Besides, the result in data set [12] and in data set [13] was Active. In addition, the time to peak (Tmax) at 24 h in data set [11] was determined as 1.33 h.
With `O=C(O)c1ccc2nc(Cc3ccc(-c4cccc(OCc5ccc(C6CC(F)(F)C6)cc5F)n4)cc3)n(C[C@@H]3CCO3)c2c1`, the half-maximal effective concentration (EC50) in data set [1] is 0.093 nM. Further, the values for the Activity in [2] and in data set [3] were 29.5% and 73.5%, respectively.
Turning to `O=C(O)c1ccc2nc(CN3CCC(Oc4cccc(COc5ccc(Cl)c6ccoc56)n4)CC3)n(C[C@@H]3CCO3)c2n1`, the concentration for a half-maximal effect (EC50) in data set [1] is 0.062 nM. Besides, in [4], the inhibition at 1 µM was found to be 1%. The inhibition at 10 µM in data set [5] is 9.8%. In data set [7], this compound displayed a Cmax of 116 ng/mL. In addition, the AUC(0-inf) in [8] came out at 204 ng·h/mL. The CL/F in [9] was 448 mL/min/kg. In addition, the Fa at 24 h in data set [10] turned out to be 13.4%. For the same compound, the Tmax at 24 h in data set [11] came to 0.5 h.
